Reference: patent US8575218B2, “Thiol-containing compounds for the removal of elements from tissues and formulations therefor” (priority 2009, dated 2013)

Key:
[1] = Solubility of isolated product in solvents; format: physicochemical
[2] = system: goldfish; assay: Exposure of goldfish to mercuric acetate with and without chelators; format: in vivo
Procedure: Individual goldfish were placed in 200 ml water with 10 mM sodium chloride in 250 ml Erlenmeyer flasks (pH 7.00). Air was pumped into the flasks to maintain a healthy supply of oxygen. The 24 hour day was divided in to a 12 hour light/dark photoperiod. The goldfish were allowed to acclimatize for a week before the experiment was conducted, with daily water changes. Goldfish were fed standard fish food for 15 minutes each day before the water was changed.
The chelate ligands were dissolved in dimethyl sulfoxide (DMSO, 0.5 ml) before addition to the flasks. The experimental treatments evaluated are as listed in Table 1 below, and included mercuric acetate, B9, EEAB9, GB9, GEEAB9, and DMSO in the amounts shown in Table 1. B9 and EEAB9 were dissolved in DMSO (0.5 ml) before addition to the water. No precipitate was formed during the dissolution.

| SMILES | Solubility in solvents [1] | Goldfish state (Alive/Dead) at 30 min ([2]; mercuric acetate 0.5 mM + DMSO 0.5 ml) | Goldfish state (Alive/Dead) at 30 min ([2]; mercuric acetate 0.5 mM alone) | Time to death of goldfish ([2]; mercuric acetate without chelator) |
| --- | --- | --- | --- | --- |
| NC(CCC(=O)NC(CSSCCNC(=O)c1cccc(C(=O)NCCSSCC(NC(=O)CCC(N)C(=O)O)C(=O)NCC(=O)O)c1)C(=O)NCC(=O)O)C(=O)O (stereo not shown) [GB9] | readily dissolved in water |  |  |  |
| CC(=O)[O-].CC(=O)[O-].[Hg+2] [Mercuric acetate] |  | Dead | Dead | ≤ 30 min |
